In a melting point compilation (Tetko et al.; mined from patent text by program, amines drawn as free bases though some values may be those of a salt):

| Structure (SMILES) | melting point [°C] |
| --- | --- |
| CC(=O)NC[C@H]1CN(c2ccc3c(c2)C[C@@H](C)N3C=O)C(=O)O1 | 158 to 159 |
| O=C(O)CC=C(c1ccccc1)c1ccccc1 | 109 to 111 |
| O=C(c1ccccc1)n1cc(F)c(=O)n(C(=O)c2ccccc2)c1=O | 195 |
| Cc1ccc(Sc2cncc3sccc23)cc1 | 94 to 95 |
| CCOC(=O)c1cnc2c(c1O)CC(C)CC2 (stereo unspecified) | 228 to 231 |
| CC(C)Cc1ccc(C2(c3ccccc3)OC(=O)C(O)=C2O)cc1 (stereo unspecified) | 138 to 139 |
| COc1cc2c(c(OC)c1OC)C1=C(CCC1)C(=O)CC2 | 101 to 102 |
| C(#Cc1ccccc1)CCN1CCC(c2ccccc2)CC1 | 65 to 66 |
| CC(C)C1CC(=O)C(c2ccccn2)C(=O)C1 (stereo unspecified) | 110 to 112 |
| O=C1Nc2cc(F)ccc2OC1CCO (stereo unspecified) | 126 to 130 |
| CCCCOc1ccc(/C=C/c2nc3c([nH]2)c(=O)n(CC)c(=O)n3CC)cc1 | 258 to 261 |
| CCCCCCCCCN(c1ccccc1)P(=O)(O)O | 64 to 65 |
| Cc1ccc(NC(=O)c2cccc(C(F)(F)F)c2)cc1-c1ccc2ncncc2c1 | 155 to 156 |
| C=CCC(C#N)(C#N)Cc1ccc(Cl)c(Cl)c1 | 71.8 |
| Cc1cc(F)ccc1-c1nc(OCCCS(C)(=O)=O)nc2c1ccc(=O)n2-c1c(F)cccc1F | 160 to 162 |
| CC(C=CCOC(=O)c1ccc(C(N)=O)cc1)Oc1ccc(Oc2cnc3cc(Cl)ccc3n2)cc1 (stereo unspecified) | 144 to 148 |
| CCOC(=O)Nc1ccc(C(=O)OC)cc1 | 159 to 162 |
| Cc1cc(NC2=NCCN2)n(C(C)C)n1 | 173 to 175 |
| CN1CC2CC(=O)CC(C1)N2C | 72 to 73 |
| O=C(O)c1ccc(-c2nc3ccccc3s2)cc1 | 294 to 296 |
| CCCCNC(=S)NS(=O)(=O)c1cc2c(cc1OC)OCCC2CNC(=O)c1cc(Cl)ccc1OC (stereo unspecified) | 167 |

The next lines start with the values.

| melting point [°C] | Structure (SMILES) |
| --- | --- |
| 211 to 212 | CNCCc1ccc(CCC(=O)O)cc1 |
| 53 to 55 | COC(=O)c1cnc(Cl)c2ccccc12 |
| 112 to 114 | Cc1cc(NS(=O)(=O)c2ccccc2)cc(C)c1S(=O)(=O)C(Cl)(Cl)[N+](=O)[O-] |
| 167 to 170 | CCN1C(=O)NC(Cc2c[nH]c3ccccc23)C1=O (stereo unspecified) |
| 186 | CC(C)N1CCC(Nc2nc3cncnc3n2Cc2ccc(F)cc2)CC1 |
| 95 to 97 | Cc1ccccc1-c1c(C(=O)N(C)C)ccc2ccccc12 |
| 209 to 211 | CCCCCCCNC(=O)Nc1ccc(NC(=O)NCCCC)cc1C(=O)NC1CCN(C(c2ccccc2)c2ccccc2)CC1 |
| 169 to 171 | O=C1Nc2ccccc2S(=O)(=O)N1C1CCN(Cc2ccccc2)CC1 |
| 103 to 106 | CCCCCCS(=O)(=O)NC(=O)CCc1cc(OC(C)C)nn1Cc1ccc(Cl)cc1Cl |
| 104 to 106 | COC(=O)c1ccccc1C=Cc1ccc(Br)cc1 |
| 150 to 153 | N#Cc1c(Nc2c(F)cccc2F)cccc1Oc1ccccc1 |
| 157 to 159 | Fc1ccc2[nH]cc(CC3CCN(CCOc4cccc5c4OCCO5)CC3)c2c1 |
| 104 to 106 | CC(Cc1ccc(Oc2cc(N3CCN(Cc4ccccc4)CC3)nc(NCc3ccccc3)n2)cc1)(Oc1ccccc1)C(=O)O (stereo unspecified) |
| 267 to 268 | O=C(O)Cc1c(C(=O)c2cccnc2)[nH]c2cc(Cl)ccc12 |
| 235 to 236 | O=C1CSC(C(=O)Nc2ccc(Cl)cc2)Cc2ccc(Cl)cc21 (stereo unspecified) |
| 245 to 250 | COc1cc2ncnc(NC3=CC(=O)C(N(C)C)=CC3=O)c2cc1OC |
| 44 to 45 | CCOC(=O)C(Oc1ccc(-c2ccc(Cl)cc2)cc1)(C(F)(F)F)C(F)(F)F |
| 245 to 247 | CCc1nc2c(N)nc3cc(OCC(=O)N4CCOCC4)ccc3c2n1CC1CCOCC1 |
| 207 to 209 | O=[N+]([O-])c1ccc(C=[N+]([O-])c2cccc(CO)c2)cc1 |
| 187 to 190 | CCOC(=O)C1(NC=O)Cc2ccccc2NC1=O (stereo unspecified) |
